Source: patent EP3095787A1, “[…] ACTIVE COMPOUNDS AS DAG-LIPASE INHIBITORS” (Universiteit Leiden, priority 2015, dated 2016)
“Also recorded” adds a separate entry of the source.

Tests used:
cannabinoid CB1 receptor = target: T1, cannabinoid CB1 receptor (Homo sapiens, UniProt P21554); test: [3H]CP55940 displacement assay on CHOK1hCB1_bgal membranes; format: binding
T1 construct: expressed in transfected cells; host or cells: CHOK1hCB1_bgal (CHO-K1), membranes
Method: CHOK1hCB1_bgal cells (CHOK1 cell line expressing human cannabinoid receptor 1) were cultured in Ham's F12 Nutrient Mixture supplemented with 10% fetal calf serum, 1 mM glutamine, 50 U/mL penicillin, 50 µg/ml streptomycin, […] hygromycin and 800 µg/mL geneticin in a humidified atmosphere at 37°C and 5% CO2. Cells were subcultured twice a week at a ratio of 1:20 on 10-cm ø plates by trypsinization. For membrane preparation the cells were subcultured 1:10 and transferred to large 15-cm diameter plates.
The cells on thirty 15-cm ø plates were detached from the bottom by scraping them into 5 mL phosphate-buffered saline (PBS), collected in 12 mL Falcon tubes and centrifuged for 5 minutes at 200 x g (3,000 rpm). The pellets were resuspended in ice-cold 50 mM Tris-HCl buffer and 5 mM MgCl2 (pH 7.4). […] Membrane protein concentrations were measured using the BCA method.
[^3H]CP55940 displacement assays were used for high throughput screening of cold ligands and the determination of their affinity (Ki) and IC50 values. […] Nonspecific binding was determined in the presence of 10 µM AM630 (6-lodopravadoline; a selective inverse agonist for the cannabinoid receptor CB2). […] After 2 hours, the filter-bound radioactivity was determined by scintillation spectrometry using a Tri-Carb 2900 TR liquid scintillation counter (Perkin Elmer, Boston, MA).

serine hydrolases = test: Comparative and competitive gel ABPP selectivity in mouse brain membrane proteome (TAMRA-FP and MB064); format: biochemical; details: 10 µM; TAMRA-FP 500 nM and MB064 250 nM
Method: For gel based ABPP experiments mouse brain proteome (2.0 mg/mL, 20 µL) was preincubated for 30 min with vehicle (DMSO) or compound to be tested in 0.5 µL DMSO at rt. And subsequently treated with 500 nM (final concentration) TAMRA-FP (TAMRA-FP was bought at Thermo Fischer) for 15 minutes at rt. The reactions were quenched with 10 µL standard 3 x SDS page sample buffer. The samples were directly loaded and resolved on SDS page gel (10 % acrylamide). The gels were scanned with a ChemiDoc MP sytem (Biorad, Cy 3 settings, 605/50 filter) and analyzed using Image Lab 4.1.
To investigate the selectivity of compound 25 in the mouse brain proteome comparative and competitive ABPP was used with a broad-spectrum FP-based probe (TAMRA-FP) and the tailored DAGL-α ABP MB064. As a reference the widely used β-lactone-based DAGL-inhibitors THL and OMDM-188, two broad-spectrum covalent and irreversible serine hydrolase inhibitors, were firstly tested.

hDAGL-β = target: T2, hDAGL-β (Homo sapiens, UniProt Q8NCG7); test: Competitive ABPP with MB064 on membranes of hDAGL-β transfected HEK293 cells; format: biochemical; set-up: FLAG; expressed in transfected cells; host or cells: HEK293, membranes; details: n=3, read-out: pIC50 of hDAGL-β labeling (converted)
T2 sequence (Q8NCG7 1-672): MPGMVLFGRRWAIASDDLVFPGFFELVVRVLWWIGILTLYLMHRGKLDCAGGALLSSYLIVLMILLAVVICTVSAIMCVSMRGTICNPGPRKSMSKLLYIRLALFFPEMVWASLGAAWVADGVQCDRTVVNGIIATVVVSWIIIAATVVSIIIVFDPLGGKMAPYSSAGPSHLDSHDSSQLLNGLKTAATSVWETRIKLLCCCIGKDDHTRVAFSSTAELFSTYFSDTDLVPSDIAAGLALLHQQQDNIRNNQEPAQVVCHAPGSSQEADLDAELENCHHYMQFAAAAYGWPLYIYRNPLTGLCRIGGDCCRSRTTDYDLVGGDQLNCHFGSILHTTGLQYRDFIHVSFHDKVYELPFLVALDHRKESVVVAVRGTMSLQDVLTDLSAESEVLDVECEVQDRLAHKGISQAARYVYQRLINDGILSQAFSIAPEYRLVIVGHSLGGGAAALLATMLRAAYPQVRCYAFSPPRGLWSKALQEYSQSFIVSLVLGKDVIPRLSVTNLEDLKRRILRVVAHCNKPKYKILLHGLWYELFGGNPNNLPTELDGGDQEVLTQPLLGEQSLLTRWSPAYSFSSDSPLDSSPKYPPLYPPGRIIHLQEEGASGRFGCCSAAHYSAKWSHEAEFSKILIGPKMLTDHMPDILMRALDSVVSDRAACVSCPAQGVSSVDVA
Method: In view of the high homology between DAGL-α and DAGL-β the inventors assesed the activity of compound 25 also on native DAGL-β. To this end, it was tested whether the ABP probe MB064 was also able to label DAGL-β. MB064 was incubated with membranes from mock and hDAGL-β transfected HEK293 cells. MB064 was able to label a protein at the expected molecular weight of DAGL-β, which was not present in the control membranes, or in S443A-hDAGL-β transfected cells, in which the catalytic serine is replaced by alanine using site-directed mutagenesis (Figure 1 F). Thus, the tailor-made probe can also detect DAGL-β.

T1 sequence (P21554 whole entry): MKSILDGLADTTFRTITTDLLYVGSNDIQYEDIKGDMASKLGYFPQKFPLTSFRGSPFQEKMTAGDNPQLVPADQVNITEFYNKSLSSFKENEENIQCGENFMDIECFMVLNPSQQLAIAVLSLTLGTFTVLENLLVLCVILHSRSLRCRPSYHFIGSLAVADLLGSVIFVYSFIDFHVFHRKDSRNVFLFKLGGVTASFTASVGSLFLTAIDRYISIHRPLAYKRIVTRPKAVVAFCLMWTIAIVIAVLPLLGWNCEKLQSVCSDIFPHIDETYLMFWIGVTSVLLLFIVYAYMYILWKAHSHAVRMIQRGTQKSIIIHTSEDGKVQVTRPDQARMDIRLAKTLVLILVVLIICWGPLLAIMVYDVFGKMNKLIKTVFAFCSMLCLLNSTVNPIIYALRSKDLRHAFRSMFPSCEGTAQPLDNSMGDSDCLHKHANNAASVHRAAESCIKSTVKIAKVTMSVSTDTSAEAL

displacement of 3H-CP55940 from the CB1 receptor (cannabinoid CB1 receptor; 10 µM): did not displace
Ki (cannabinoid CB1 receptor; CB1 receptor radioligand displacement): > 10 µM
IC50 (hDAGL-β): 0.0398 µM
SMILES: Cc1ccc(-c2cnc3nc(C(=O)CCCCCc4ccccc4)oc3c2)cc1 [Compound 25, 1-(6-(p-Tolyl)oxazolo[4,5-b]pyridin-2-yl)-6-phenylhexan-1-one]
labeling of other bands (selectivity) (serine hydrolases): excellent selectivity; also recorded: did not inhibit labeling of any other band
